Assay results as given in US9340493B2, “Hydroxamic acid derivatives useful as antibacterial agents” (Pfizer Inc., priority 2008, dated 2016).
In brackets after ≈: the same amount, converted by molar mass.

Experiments:
[1] = target: T1, Pseudomonas aeruginosa LpxC enzyme (Pseudomonas aeruginosa, UniProt P47205); experiment: IC50 assay, LpxC enzyme from P. aeruginosa; type: biochemical; details: 0.5 nM enzyme, 25° C., pH 8.0, 20 min; ** = average of 2-8 assays
T1 construct: made in house; host or cells: E. coli
T1 sequence (P47205 1-303): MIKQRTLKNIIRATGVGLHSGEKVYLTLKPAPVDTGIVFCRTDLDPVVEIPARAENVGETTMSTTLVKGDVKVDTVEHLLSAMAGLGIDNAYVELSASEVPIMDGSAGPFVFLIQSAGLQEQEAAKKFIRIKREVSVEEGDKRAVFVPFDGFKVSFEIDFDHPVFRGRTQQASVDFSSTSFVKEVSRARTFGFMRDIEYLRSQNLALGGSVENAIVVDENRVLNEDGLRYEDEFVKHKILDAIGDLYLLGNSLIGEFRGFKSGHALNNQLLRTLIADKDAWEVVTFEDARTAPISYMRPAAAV
Procedure: IC50 assay, LpxC enzyme from P. aeruginosa: IC50 determination in the LpxC enzyme assay was carried out in a similar manner to that described by S. A. Hyland et al., J. Bacteriology 1997, 179, 2029-2037. [See also T. Kline et al., J. Medicinal Chemistry 2002, 45, 3112-3129.] Briefly, Pseudomonas aeruginosa LpxC enzyme (0.5 nM) purified from E. coli-overexpressing bacteria was incubated at 25° C. in a final volume of 25 ul containing 0.5 uM UDP-3-O—(R-3-hydroxydecanoyl)-N—[^3H-acetyl]glucosamine (B. D. Maxwell and J. C. Bronstein, J. Labeled Compounds and Radiopharmaceuticals 2005, 48, 1049-1054), 1 mg/ml BSA, and 50 mM sodium phosphate buffer, pH 8.0 in the presence and absence of inhibitor compound. At the end of 20 min, 90 ul of a pre-mixed 3% suspension of activated charcoal in 100 mM sodium acetate, pH 7.5, was added to stop the enzyme reaction. The contents of the well were transferred to a filter plate and filtered, and an aliquot of the filtrate was quantitated by liquid scintillation spectrometry. A no-enzyme control was subtracted in order to eliminate background counts.

P. aeruginosa PAO280 = experiment: MIC determination, P. aeruginosa PAO280; type: cell-based; details: Pseudomonas aeruginosa, PAO280, read-out: MIC (ug/mL) P. aeruginosa PAO280
Procedure: (§1) MIC determinations: The in vitro antibacterial activity of compounds described in the Examples was evaluated by minimum inhibitory concentration (MIC) testing according to Clinical and Laboratory Standards Institute (CLSI, formerly NCCLS) guidelines. See: Clinical and Laboratory Standards Institute. Methods for Dilution Antimicrobial Susceptibility Tests for Bacteria that Grow Aerobically; Approved Standard-Seventh Edition. CLSI document M7-A7 [ISBN 1-56238-587-9]. Clinical and Laboratory Standards Institute, 940 West Valley Road, Suite 1400, Wayne, Pa. 19087-1898 USA, 2006; also Clinical and Laboratory Standards Institute. Performance Standards for Antimicrobial Susceptibility Testing; Eighteenth Informational Supplement. CLSI document M100-S18 [ISBN1-56238-653-0]. Clinical and Laboratory Standards Institute.
(§2) The following bacterial strains were used:
Pseudomonas aeruginosa PA0280: lacks efflux pumps MexAB-oprM, MexXY and MexZ

P. aeruginosa UI-18 = experiment: MIC determination, P. aeruginosa UI-18; type: cell-based; details: Pseudomonas aeruginosa, UI18; wild-type; * = arithmetic mean of 2-6 MIC determinations; read-out: MIC (ug/mL) P. aeruginosa UI-18
Procedure: as §1, §2
P. aeruginosa UI-18: Wild-type;

[2] = test system: Staphylococcus aureus ATCC 29213; experiment: MIC determination, S. aureus ATCC 29213; type: cell-based; details: ATCC29213, CLSI quality control reference strain, * = arithmetic mean of 2-6 MIC determinations, read-out: MIC (ug/mL) S. aureus ATCC 29213
Procedure: as §1, §2
Staphylococcus aureus ATCC 29213: CLSI quality control reference strain; and […]

Klebsiella pneumoniae = experiment: MIC determination, K. pneumoniae; type: cell-based; details: ciprofloxacin-resistant, ESBL-expressing clinical isolate, * = arithmetic mean of 2-6 MIC determinations, read-out: MIC (ug/mL) K. pneumoniae
Procedure: as §1, §2
Klebsiella pneumoniae: Ciprofloxacin-resistant isolate, expresses extended-spectrum beta-lactamases (ESBL), clinical isolate;

Enterobacter aerogenes = experiment: MIC determination, E. aerogenes; type: cell-based; details: Klebsiella aerogenes; quinolone-resistant, ESBL-expressing clinical isolate; * = arithmetic mean of 2-6 MIC determinations; read-out: MIC (ug/mL) E. aerogenes
Procedure: as §1, §2
Enterobacter aerogenes: Quinolone-resistant isolate, expresses extended-spectrum beta-lactamases (ESBL), clinical isolate;

Escherichia coli EC-1 = experiment: MIC determination, E. coli EC-1; type: cell-based; details: EC1, EC-1: VOGEL, * = arithmetic mean of 2-6 MIC determinations, read-out: MIC (ug/mL) E. coli EC-1
Procedure: as §1, §2
Escherichia coli EC-1: VOGEL;

[3] = test system: Acinetobacter baumanii/haemolyticus; experiment: MIC determination, A. baumanii/haemolyticus; type: cell-based; details: Acinetobacter baumannii; multidrug-resistant clinical isolate; * = arithmetic mean of 2-6 MIC determinations; read-out: MIC (ug/mL) A. baumanii/haemolyticus
Procedure: as §1, §2
Acinetobacter baumanii/haemolyticus: Multidrug-resistant clinical isolate;

| Compound | IC50 [1] | MIC (P. aeruginosa PAO280) | MIC (P. aeruginosa UI-18) | MIC [2] | MIC (Klebsiella pneumoniae) | MIC (Enterobacter aerogenes) | MIC (Escherichia coli EC-1) | MIC [3] |
| --- | --- | --- | --- | --- | --- | --- | --- | --- |
| C[C@@](OCc1ccc(-c2ccccc2)cc1)(C(=O)NO)[C@@H](O)c1cc(COP(=O)(O)O)on1 [Example 47, trisodium {3-[(1S,2S)-2-(biphenyl-4-ylmethoxy)-1-hydroxy-2-methyl-3-(oxidoamino)-3-oxopropyl]isoxazol-5-yl}methyl phosphate] | 0.00565 µM | – | – | – | – | – | – | – |
| CC(CO)(OCc1ccc(-c2ccc(-c3csnn3)cc2)cc1)C(=O)NO (centres unmarked) [Example 59, N,3-dihydroxy-2-methyl-2-{[4′-(1,2,3-thiadiazol-4-yl)biphenyl-4-yl]methoxy}propanamide] | 0.00402 µM | 1 µg/mL (≈ 2.59 µM) | > 64 µg/mL | > 64 µg/mL | – | – | – | – |
| CC(CO)(OCc1ccc(-c2ccc(C3=NNC(=O)CC3)cc2)cc1)C(=O)NO (centres unmarked) [Example 60, N,3-dihydroxy-2-methyl-2-{[4′-(6-oxo-1,4,5,6-tetrahydropyridazin-3-yl)biphenyl-4-yl]methoxy}propanamide] | 0.0105 µM | 4 µg/mL (≈ 10.1 µM) | > 64 µg/mL | > 64 µg/mL | – | – | – | – |
| CN(C)S(=O)(=O)c1ccc(-c2ccc(COC(C)(CO)C(=O)NO)cc2)cc1 (centres unmarked) [Example 61, 2-({4′-[(dimethylamino)sulfonyl]biphenyl-4-yl}methoxy)-N,3-dihydroxy-2-methylpropanamide] | 0.0602 µM | 16 µg/mL (≈ 39.2 µM) | > 64 µg/mL | > 64 µg/mL | – | – | – | – |
| Cc1cc(F)ccc1-c1ccc(COC(C)(CO)C(=O)NO)cc1 (centres unmarked) [Example 63, 2-[(4′-fluoro-2′-methylbiphenyl-4-yl)methoxy]-N,3-dihydroxy-2-methylpropanamide] | 0.0174 µM | 4 µg/mL (≈ 12 µM) | > 64 µg/mL | > 64 µg/mL | – | – | – | – |
| CC(CO)(OCc1ccc(-c2cccc(F)c2)cc1)C(=O)NO (centres unmarked) [Example 64, 2-[(3′-fluorobiphenyl-4-yl)methoxy]-N,3-dihydroxy-2-methylpropanamide] | 0.00757 µM | 4 µg/mL (≈ 12.5 µM) | > 64 µg/mL | > 64 µg/mL | – | – | – | – |
| COc1cccc(-c2ccc(COC(C)(CO)C(=O)NO)cc2)c1F (centres unmarked) [Example 65, 2-[(2′-fluoro-3′-methoxybiphenyl-4-yl)methoxy]-N,3-dihydroxy-2-methylpropanamide] | 0.00579 µM | 1 µg/mL (≈ 2.86 µM) | 64 µg/mL (≈ 183 µM) | > 64 µg/mL | – | – | – | – |
| CC(OCc1ccc(-c2ccccc2)cc1)(C(=O)NO)C(=O)NCC1(O)CCCC1 (centres unmarked) [Example 68, 2-(biphenyl-4-ylmethoxy)-N-hydroxy-N′-[(1-hydroxycyclopentyl)methyl]-2-methylmalonamide] | 0.0955 µM | 4 µg/mL (≈ 9.7 µM) | > 64 µg/mL | > 64 µg/mL | – | – | – | – |
| Cc1ccc(CNC(=O)C(C)(OCc2ccc(-c3ccccc3)cc2)C(=O)NO)cc1 (centres unmarked) [Example 72, 2-(biphenyl-4-ylmethoxy)-N-hydroxy-2-methyl-N′-(4-methylbenzyl)malonamide] | 0.0307 µM | 4 µg/mL (≈ 9.56 µM) | > 16 µg/mL | > 16 µg/mL | – | – | – | – |
| Cn1cc(CCNC(=O)C(C)(OCc2ccc(-c3ccccc3)cc2)C(=O)NO)cn1 (centres unmarked) [Example 73, 2-(biphenyl-4-ylmethoxy)-N-hydroxy-2-methyl-N′-[2-(1-methyl-1H-pyrazol-4-yl)ethyl]malonamide] | 0.0156 µM | 1 µg/mL (≈ 2.37 µM) | > 64 µg/mL | > 64 µg/mL | – | – | – | – |
| COCCNC(=O)C(C)(OCc1ccc(-c2ccccc2)cc1)C(=O)NO (centres unmarked) [Example 74, 2-(biphenyl-4-ylmethoxy)-N-hydroxy-N′-(2-methoxyethyl)-2-methylmalonamide] | 0.0139 µM | 1 µg/mL (≈ 2.69 µM) | 64 µg/mL (≈ 172 µM) | > 64 µg/mL | – | – | – | – |
| CC(OCc1ccc(-c2ccccc2)cc1)(C(=O)NO)C(=O)NC[C@@H]1CCCO1 (stereo partly drawn) [Example 75, 2-(biphenyl-4-ylmethoxy)-N-hydroxy-2-methyl-N′-[(2S)-tetrahydrofuran-2-ylmethyl]malonamide] | 0.0126 µM | 1 µg/mL (≈ 2.51 µM) | 64 µg/mL (≈ 161 µM) | > 64 µg/mL | – | – | – | – |
| CC(OCc1ccc(-c2ccccc2)cc1)(C(=O)NO)C(=O)NCCc1cscn1 (centres unmarked) [Example 76, 2-(biphenyl-4-ylmethoxy)-N-hydroxy-2-methyl-N′-[2-(1,3-thiazol-4-yl)ethyl]malonamide] | 0.00848 µM | 0.5 µg/mL (≈ 1.18 µM) | 64 µg/mL (≈ 150 µM) | > 64 µg/mL | – | – | – | – |
| CC(=O)NCCNC(=O)C(C)(OCc1ccc(-c2ccccc2)cc1)C(=O)NO (centres unmarked) [Example 77, N-(2-acetamidoethyl)-2-(biphenyl-4-ylmethoxy)-N′-hydroxy-2-methylmalonamide] | 0.00612 µM | 1 µg/mL (≈ 2.5 µM) | 64 µg/mL (≈ 160 µM) | > 64 µg/mL | – | – | – | – |
| Cc1n[nH]c(C)c1CNC(=O)C(C)(OCc1ccc(-c2ccccc2)cc1)C(=O)NO (centres unmarked) [Example 78, 2-(biphenyl-4-ylmethoxy)-N-[(3,5-dimethyl-1H-pyrazol-4-yl)methyl]-N′-hydroxy-2-methylmalonamide] | 0.0055 µM | 1 µg/mL (≈ 2.37 µM) | 64 µg/mL (≈ 151 µM) | > 64 µg/mL | – | – | – | – |
| Cc1nnc(CCNC(=O)C(C)(OCc2ccc(-c3ccccc3)cc2)C(=O)NO)[nH]1 (centres unmarked) [Example 79, 2-(biphenyl-4-ylmethoxy)-N-hydroxy-2-methyl-N′-[2-(5-methyl-4H-1,2,4-triazol-3-yl)ethyl]malonamide] | 0.00288 µM | 1 µg/mL (≈ 2.36 µM) | 64 µg/mL (≈ 151 µM) | > 64 µg/mL | – | – | – | – |
| Cc1ncsc1CCNC(=O)C(C)(OCc1ccc(-c2ccccc2)cc1)C(=O)NO (centres unmarked) [Example 80, 2-(biphenyl-4-ylmethoxy)-N-hydroxy-2-methyl-N′-[2-(4-methyl-1,3-thiazol-5-yl)ethyl]malonamide] | 0.00899 µM | 0.5 µg/mL (≈ 1.14 µM) | 64 µg/mL (≈ 146 µM) | > 64 µg/mL | – | – | – | – |
| CC(OCc1ccc(-c2ccccc2)cc1)(C(=O)NO)C(=O)NCCO (centres unmarked) [Example 81, 2-(biphenyl-4-ylmethoxy)-N-hydroxy-N′-(2-hydroxyethyl)-2-methylmalonamide] | 0.0261 µM | 1 µg/mL (≈ 2.79 µM) | 64 µg/mL (≈ 179 µM) | > 64 µg/mL | – | – | – | – |
| CCN1CC(CNC(=O)C(C)(OCc2ccc(-c3ccccc3)cc2)C(=O)NO)CC1=O (centres unmarked) [Example 82, 2-(biphenyl-4-ylmethoxy)-N-[(1-ethyl-5-oxopyrrolidin-3-yl)methyl]-N′-hydroxy-2-methylmalonamide] | 0.0486 µM | 4 µg/mL (≈ 9.1 µM) | > 64 µg/mL | > 64 µg/mL | – | – | – | – |
| CNC(=O)C(C)(OCc1ccc(-c2ccccc2)cc1)C(=O)NO (centres unmarked) [Example 93, 2-(biphenyl-4-ylmethoxy)-N-hydroxy-N′,2-dimethylmalonamide] | – | 0.125 µg/mL (≈ 0.381 µM) | 8 µg/mL (≈ 24.4 µM) | > 64 µg/mL | 64 µg/mL (≈ 195 µM) | > 64 µg/mL | 32 µg/mL (≈ 97.5 µM) | > 64 µg/mL |
